Results published in patent publication US11344578B2, “Immune cells expressing engineered antigen receptors” (Board of Regents, The University of Texas System, priority 2017, dated 2022).
Entries after “also recorded” stand apart in the source; their conditions may differ.

Legend:
[1] = system: TGFβ-RII; assay: CRISPR/CAS9 knockout of TGFβ-RII in CAR NK cells; assay type: cell-based; settings: Cas9 plus gRNA targeting Exon 3; FIG. 6A
Description: Next, CRISPR-CAS9 was used to knockout TGFβ in CAR NK cells to render CAR NK cells resistant to the immunosuppressive effect of exogenous TGFβ. […] Wild type and TGF-β-RII knockout NK cells were treated with 10 ng/ml of recombinant TGF-β for 48 hrs and their response to K562 targets was assessed. […] TGFβ-RII knockout by CRISPR/CAS9 technology was also found to abrogate downstream Smad-2/3 phosphorylation in response to 10n g/ml of recombinant TGF-β compared to NK cells treated with CAS9 alone (FIG. 6C). Thus, CRISPR-CAS9-mediated knockout of TGFβ-RII renders NK cells resistant to TGFβ.

[2] = system: Raji leukemic B cells; assay: Luciferase-expressing Raji NSG mouse model, in vivo bioluminescence imaging and survival; settings: effect of IL-15 in the construct
From the text: To determine the anti-leukemic effect of the CAR-transduced NK cells, they were infused into a “humanized” mouse model of lymphoblastic leukemia, the luciferase-expressing Raji NSG mouse model. To monitor the trafficking of CAR-CD191+CB-NK cells to tumor sites in vivo, the cells were labeled with the FFLuc vector, enabling monitoring by bioluminescence imaging. Engrafted mice received […] Raji leukemic B cells (2×10^6) injected intravenously and labeled with the RLuc vector to monitor tumor growth. Six to 10 days after tumor engraftment, mice were infused intravenously with 2×10^7 expanded CB-NK cells that were unmodified or CD19-CD28-zeta-2A-IL15 CB-NK cells labeled with FFLuc. All imaging was performed once a week for 3 weeks. Four groups of animals (n=10 per group) were studied, and the spleens, blood and lymph nodes of the mice were collected after they were euthanized.

[3] = system: iC9/CS1/IL15+NK cells; assay: Inducible caspase-9 suicide gene test, annexin-V-7AAD staining; assay type: cell-based; settings: 10 nM CID AP20187 added to cultures
Description: Because of concerns over autonomous, uncontrolled NK-cell growth due to autocrine production of IL-15, a suicide gene based on the inducible caspase-9 (IC9) gene was incorporated into the construct. To test the inducible caspase-9 suicide gene that was incorporated into the retroviral vector, 10 nM of CID AP20187 was added to cultures of iC9/CS1/IL15+NK cells. The AP20187 induced apoptosis/necrosis of transgenic cells within 4 hours as assessed by annexin-V-7AAD staining.

[4] = system: glucocorticoid receptor; assay: PCR based screening of glucocorticoid receptor knockout in hematopoietic cells; assay type: cell-based; settings: T cells and NK cells; CRISPR-CAS9; FIG. 3
From the text: To produce steroid-resistant immune cells, the CRISPR-CAS9 system was used to knockout glucocorticoid receptor in hematopoietic cells using gRNA SEQ ID NOs:1-2.

## gRNA SEQ ID NOs:3-4: guide RNAs EX3 TGFBR2 sG1 and sG2 used with Cas9 to knock out TGFβ-RII (guide 1 CGGCTGAGGAGCGGAAGA; guide 2 TGGAGGTGAGCAATCCCC; used with Cas9, further chemistry not given here)
[1]
  knockout of TGFβ-RII: Successful knockout

## IL-15: interleukin-15 co-expressed from the CAR construct in NK cells
[2]; FIG. 2A
  NK-CAR mediated killing of tumor: enhances; also recorded: increase
[2]; FIG. 2B
  survival: prolong survival

## CC[C@H](C(=O)N1CCCC[C@H]1C(=O)O[C@H](CCc1ccc(OC)c(OC)c1)c1cccc(OCC(=O)NCC(CNC(=O)COc2cccc([C@@H](CCc3ccc(OC)c(OC)c3)OC(=O)[C@@H]3CCCCN3C(=O)[C@@H](CC)c3cc(OC)c(OC)c(OC)c3)c2)CN(C)C)c1)c1cc(OC)c(OC)c(OC)c1 [AP20187]
[3]
  time to apoptosis/necrosis of transgenic cells: ≤ 4 h

## gRNA SEQ ID NOs:1-2: guide RNAs Ex3 NR3C1 sG1 and sG2 used with CAS9 to knock out glucocorticoid receptor (guide 1 TGCTGTTGAGGAGCTGGA; guide 2 AGCACACCAGGCAGAGTT; used with Cas9, further chemistry not given here)
[4]
  glucocorticoid receptor knockout by PCR based screening: efficient knockdown
